Assay results published in BindingDB's records for doi:10.1021/jm990383f (Upjohn, 2000).

Columns and labels:
[1] = target: T1, Gag-Pol polyprotein [588-1027]/[588-1147] (Human immunodeficiency virus 1, UniProt P04585); assay: HIV-1 RT Assay; conditions: pH 8.3; 28 °C
T1 construct: 588-1027; 588-1147
Text: (§1) The IC50 of reverse transcriptase is the concentration that inhibits 50% of recombinant HIV-1 RT RNA-directed DNA polymerase activity in vitro.

[2] = target: T2, Gag-Pol polyprotein [588-1027,P823L]/[588-1147,P823L] (Human immunodeficiency virus 1, UniProt P04585, P823L); assay: HIV-1 RT Assay; conditions: pH 8.3; 28 °C
T2 construct: 588-1027; 588-1147
Text: as §1

Molecule `CCc1c(CCO)nn(-c2ccccc2)c1-c1ccccc1` [1,5-Diphenyl-3-(2-hydroxyethyl)-4-ethylpyrazole] has an IC50 [1] of over 50 µM.
Molecule `C#CCc1c(C)nn(-c2ccccc2)c1-c1ccccc1` [3-methyl-1,5-diphenyl-4-(prop-2-yn-1-yl)-1H-pyrazole] has an IC50 [2] of 1540 nM and an IC50 [1] of 13.4 µM.
